From patent US4962109A, “Insecticidally and acaricidally active pyrimidine esters and intermediates therefor” (Imperial Chemical Industries PLC, priority 1985, dated 1990)

Experiments:
Format in all cases: in vivo
[1] = system: Tetranychus urticae (spider mites - adult); assay: Contact test on spider mites - adult (TUa), French bean leaf, mortality; details: 72 h, contact, 3 days, read-out: TUa grading of mortality
Method in brief: (§1)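 Compound dissolved in acetone, diluted with water containing 0.01% by weight wetting agent to 500, 250 or 100 ppm. Pests held on host plant or foodstuff; pests and/or medium treated. Mortality scored one to three days later as grade A (80-100%), B (50-79%) or C (<50%) mortality or knockdown.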

[2] = system: Tetranychus urticae (spider mites - ova); assay: Contact test on spider mites - ova (TUe), French bean leaf, mortality; details: 144 h, contact, 6 days, read-out: TUe grading of mortality
Method in brief: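 Graded read-out: A 80-100%, B 50-79%, C below 50% mortality or knockdown, assessed usually 1-3 days post-treatment. Liquid preparations at 500, 250 or 100 ppm by weight, from acetone solution diluted in water with 0.01% wetting agent, applied to pests and/or their host plant or food medium.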

Myzus persicae (aphids) = assay: Contact test on aphids (MP), Chinese Cabbage leaf, mortality; details: 72 h, contact, 3 days, read-out: MP grading of mortality
Method in brief: as §1

[3] = system: Nephotettix cincticeps (green leaf hopper - nymphs); assay: Contact test on green leaf hopper nymphs (NC), Rice plant, mortality; details: 48 h, contact, 2 days, read-out: NC grading of mortality
Method in brief: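 Product dissolved in acetone, diluted in water with 0.01% wetting agent to 500, 250 or 100 ppm; nymphs and/or host rice plants treated. Mortality or knockdown assessed 1–3 days later, graded A (80-100%), B (50-79%), C (<50%).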

[4] = system: Musca domestica (houseflies - adults); assay: Knockdown test on houseflies - adults (MD/KD), Cotton wool/sugar; details: 4 hours, read-out: MD/KD grading of knockdown
Method in brief: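 Adult houseflies exposed to the compound at 500, 250 or 100 ppm in acetone/water with 0.01% wetting agent, on a cotton wool/sugar medium. Knockdown and mortality assessed, graded A (80-100%), B (50-79%) or C (<50%).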

[5] = system: Musca domestica (houseflies - adults); assay: Contact test on houseflies - adults (MD), Cotton wool/sugar, mortality; details: 72 h, contact, 3 days, read-out: MD grading of mortality
Method in brief: as §1

[6] = system: Blattella germanica (cockroach nymphs); assay: Contact test on cockroach nymphs (BG/C), Plastic pot, mortality; details: 48 h, contact, 2 days, read-out: BG/C grading of mortality
Method in brief: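 Cockroach nymphs and/or their medium were treated with aqueous preparations at 500, 250 or 100 ppm (acetone solution diluted in water with 0.01% Lissapol NX wetting agent). Mortality or knockdown was assessed typically 1–3 days later and graded A (80–100%), B (50–79%) or C (<50%).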

[7] = system: Heliothis virescens (tobacco budworm - larvae); assay: Residual test on tobacco budworm larvae (HV), Cotton leaf, mortality; details: 48 h, read-out: HV grading of mortality
Method in brief: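 Product in acetone diluted with water containing 0.01% Lissapol NX, at 500, 250 or 100 ppm; pests and/or host medium (here cotton leaf) treated. Mortality scored one to three days later, graded A (80-100%), B (50-79%), C (<50%).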

[8] = system: Spodoptera exigua (lesser army worm - larvae); assay: Residual test on lesser army worm larvae (SP), Cotton leaf, mortality; details: 48 h, residual, 2 days, read-out: SP grading of mortality
Method in brief: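 Product dissolved in acetone and diluted in water with 0.01% wetting agent to 500, 250 or 100 ppm; larvae and/or cotton leaf host treated. Mortality or knockdown scored one to three days later and graded A (80-100%), B (50-79%) or C (<50%).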

[9] = system: Diabrotica balteata (rootworm larvae); assay: Residual test on rootworm larvae (DB), Filter paper/maize seed, mortality; details: 48 h, residual, 2 days, read-out: DB grading of mortality
Method in brief: as §1

C[C@@H](OC(=O)[C@@H](c1cnc(C(C)(C)C)nc1)C(C)(C)C)c1cccc(Oc2ccccc2)n1 (racemic) [Compound 11, (RS)-1-(6-phenoxypyrid-2-yl)ethyl (RS)-2-[2-(1,1-dimethylethyl)pyrimidin-5-yl]-3,3-dimethylbutanoate]
80 to 100%: mortality at 500 ppm [1] | mortality at 500 ppm [2] | mortality at 500 ppm (Myzus persicae (aphids)) | mortality at 500 ppm [3] | pest or weed control at 500 ppm [4] | mortality at 500 ppm [5] | mortality at 500 ppm [7] | mortality at 500 ppm [8] | mortality at 500 ppm [9]
< 50%: mortality at 500 ppm [6]

Cc1ncc(C(C(=O)OC(C)c2cccc(Oc3ccccc3)n2)C(C)(C)C)cn1 (racemic) [Compound 205, RS-1-(6-phenoxypyrid-2-yl)ethyl (RS)-2-(2-methylpyrimidin-5-yl)-3,3-dimethylbutanoate]
80 to 100%: mortality at 500 ppm [1] | mortality at 500 ppm (Myzus persicae (aphids)) | mortality at 500 ppm [3] | mortality at 500 ppm [7] | mortality at 500 ppm [8]
< 50%: mortality at 500 ppm [2] | pest or weed control at 500 ppm [4] | mortality at 500 ppm [5] | mortality at 500 ppm [6] | mortality at 500 ppm [9]

CC(C)(C)c1ncc(C(C(=O)OCc2ccc(F)c(Oc3ccccc3)c2)C(C)(C)C)cn1 (racemic) [Compound 25, 4-fluoro-3-phenoxybenzyl (RS)-2-[2-(1,1-dimethylethyl)pyrimidin-5-yl]-3,3-dimethylbutanoate]
80 to 100%: mortality at 500 ppm [1] | mortality at 500 ppm [2] | mortality at 500 ppm (Myzus persicae (aphids)) | mortality at 500 ppm [3] | pest or weed control at 500 ppm [4] | mortality at 500 ppm [7] | mortality at 500 ppm [8]
< 50%: mortality at 500 ppm [5] | mortality at 500 ppm [6]
50 to 79%: mortality at 500 ppm [9]

CC(C)(C)C(=O)OCc1c(F)c(F)c(COC(=O)C(c2cnc(C(C)(C)C)nc2)C(C)(C)C)c(F)c1F (racemic) [Compound 172, 4-[(2,2-dimethylpropionyl)oxymethyl]-2,3,5,6-tetrafluorobenzyl (RS)-2-[2-(1,1-dimethylethyl)pyrimidin-5-yl]-3,3-dimethylbutanoate]
50 to 79%: mortality at 500 ppm (Myzus persicae (aphids))
< 50%: mortality at 500 ppm [2] | mortality at 500 ppm [3] | pest or weed control at 500 ppm [4] | mortality at 500 ppm [5] | mortality at 500 ppm [6] | mortality at 500 ppm [7] | mortality at 500 ppm [8] | mortality at 500 ppm [9]
80 to 100%: mortality at 500 ppm [1]

CC(C)(C)SCc1c(F)c(F)c(COC(=O)C(c2cnc(C(C)(C)C)nc2)C(C)(C)C)c(F)c1F (racemic) [Compound 175, 4-[(1,1-dimethylethyl)thio]methyl-2,3,5,6-tetrafluorobenzyl (RS)-2-[2-(1,1-dimethylethyl)pyrimidin-5-yl]-3,3dimethylbutanoate]
80 to 100%: mortality at 500 ppm [1]
< 50%: mortality at 500 ppm [2] | mortality at 500 ppm (Myzus persicae (aphids)) | mortality at 500 ppm [3] | pest or weed control at 500 ppm [4] | mortality at 500 ppm [5] | mortality at 500 ppm [6] | mortality at 500 ppm [7] | mortality at 500 ppm [8] | mortality at 500 ppm [9]

CC(C)(C)c1ncc(C(C(=O)OCc2c(F)c(F)c(COCc3ccc(Cl)cc3)c(F)c2F)C(C)(C)C)cn1 (racemic) [Compound 163, 4-[(4-chlorobenzyloxy)methyl]-2,3,5,6-tetrafluorobenyl (RS)-2-[2-(1,1-dimethylethyl)pyrimidin-5-yl]-3,3-dimethylbutanoate]
80 to 100%: mortality at 500 ppm [1]
50 to 79%: mortality at 500 ppm [8]
< 50%: mortality at 500 ppm [2] | mortality at 500 ppm (Myzus persicae (aphids)) | mortality at 500 ppm [3] | pest or weed control at 500 ppm [4] | mortality at 500 ppm [5] | mortality at 500 ppm [6] | mortality at 500 ppm [7] | mortality at 500 ppm [9]

CC(C)(C)c1ncc(C(C(=O)OCc2cccc(Oc3ccccc3)c2)C(C)(C)C)cn1 (racemic) [Compound 1, 3-phenoxybenzyl (RS)-2-[2-(1,1,-dimethylethyl)pyrimidin-5-yl]-3,3-dimethylbutanoate]
< 50%: mortality at 500 ppm [5] | mortality at 500 ppm [6] | mortality at 500 ppm [8] | mortality at 500 ppm [9]
80 to 100%: mortality at 500 ppm [1] | mortality at 500 ppm [2] | mortality at 500 ppm (Myzus persicae (aphids)) | mortality at 500 ppm [3] | pest or weed control at 500 ppm [4] | mortality at 500 ppm [7]

CC(C)SCc1c(F)c(F)c(COC(=O)C(c2cnc(C(C)(C)C)nc2)C(C)(C)C)c(F)c1F (racemic) [Compound 174]
< 50%: mortality at 500 ppm [2] | pest or weed control at 500 ppm [4] | mortality at 500 ppm [5] | mortality at 500 ppm [6] | mortality at 500 ppm [7] | mortality at 500 ppm [8] | mortality at 500 ppm [9]
80 to 100%: mortality at 500 ppm [1] | mortality at 500 ppm (Myzus persicae (aphids))
50 to 79%: mortality at 500 ppm [3]

C#CCSCc1c(F)c(F)c(COC(=O)C(c2cnc(C(C)(C)C)nc2)C(C)(C)C)c(F)c1F (racemic) [Compound 220]
80 to 100%: mortality at 500 ppm [1] | mortality at 500 ppm (Myzus persicae (aphids)) | mortality at 500 ppm [3] | pest or weed control at 500 ppm [4] | mortality at 500 ppm [5]
50 to 79%: mortality at 500 ppm [8] | mortality at 500 ppm [9]
< 50%: mortality at 500 ppm [2] | mortality at 500 ppm [6] | mortality at 500 ppm [7]

CC(C)(C)c1ncc(C(C(=O)OCc2c(F)c(F)c(F)c(F)c2F)C(C)(C)C)cn1 (racemic) [Compound 30, 2,3,4,5,6-pentafluorobenzyl (RS)-2-[2-(1,1-dimethylethyl)pyrimidin-5-yl]-3,3-dimethylbutanoate]
80 to 100%: mortality at 500 ppm [1] | mortality at 500 ppm (Myzus persicae (aphids)) | mortality at 500 ppm [3] | pest or weed control at 500 ppm [4] | mortality at 500 ppm [5] | mortality at 500 ppm [7] | mortality at 500 ppm [8] | mortality at 500 ppm [9]
< 50%: mortality at 500 ppm [2] | mortality at 500 ppm [6]

CCC(C)(C)c1ncc(C(C(=O)OCc2ccc(F)c(Oc3ccccc3)c2)C(C)(C)C)cn1 (racemic) [Compound 68, 4-fluoro-3-phenoxybenzyl (RS)-2-[2-(1,1-dimethylpropyl)pyrimidin-5-yl]-3,3-dimethylbutanoate]
50 to 79%: mortality at 500 ppm [8]
80 to 100%: mortality at 500 ppm [1] | mortality at 500 ppm (Myzus persicae (aphids)) | mortality at 500 ppm [3] | mortality at 500 ppm [7]
< 50%: mortality at 500 ppm [2] | pest or weed control at 500 ppm [4] | mortality at 500 ppm [5] | mortality at 500 ppm [6] | mortality at 500 ppm [9]

CC(OC(=O)C(c1cnc(-c2ccccc2)nc1)C(C)(C)C)c1cccc(Oc2ccccc2)n1 (racemic) [Compound 82, (RS)-1-(6-phenoxpyrid-2-yl)ethyl (RS)-2-(2-phenylpyrimidin-5-yl)-3,3-dimethylbutanoate]
< 50%: mortality at 1000 ppm ([2]; 1000 ppm) | mortality at 1000 ppm ([5]; 1000 ppm) | mortality at 1000 ppm ([6]; 1000 ppm) | mortality at 1000 ppm ([9]; 1000 ppm)
80 to 100%: mortality at 1000 ppm ([1]; 1000 ppm) | mortality at 1000 ppm (Myzus persicae (aphids); 1000 ppm) | mortality at 1000 ppm ([3]; 1000 ppm) | pest or weed control at 1000 ppm ([4]; 1000 ppm) | mortality at 1000 ppm [7] | mortality at 1000 ppm ([8]; 1000 ppm)
